In one series the target is T1, rSjNR-S (Saccharina japonica, UniProt A0A977LKQ3).
T1 construct: E. coli BL21(DE3) pCold-SUMO-10His, Ni-NTA, SUMO tag cut off
T1 sequence (A0A977LKQ3 1-705): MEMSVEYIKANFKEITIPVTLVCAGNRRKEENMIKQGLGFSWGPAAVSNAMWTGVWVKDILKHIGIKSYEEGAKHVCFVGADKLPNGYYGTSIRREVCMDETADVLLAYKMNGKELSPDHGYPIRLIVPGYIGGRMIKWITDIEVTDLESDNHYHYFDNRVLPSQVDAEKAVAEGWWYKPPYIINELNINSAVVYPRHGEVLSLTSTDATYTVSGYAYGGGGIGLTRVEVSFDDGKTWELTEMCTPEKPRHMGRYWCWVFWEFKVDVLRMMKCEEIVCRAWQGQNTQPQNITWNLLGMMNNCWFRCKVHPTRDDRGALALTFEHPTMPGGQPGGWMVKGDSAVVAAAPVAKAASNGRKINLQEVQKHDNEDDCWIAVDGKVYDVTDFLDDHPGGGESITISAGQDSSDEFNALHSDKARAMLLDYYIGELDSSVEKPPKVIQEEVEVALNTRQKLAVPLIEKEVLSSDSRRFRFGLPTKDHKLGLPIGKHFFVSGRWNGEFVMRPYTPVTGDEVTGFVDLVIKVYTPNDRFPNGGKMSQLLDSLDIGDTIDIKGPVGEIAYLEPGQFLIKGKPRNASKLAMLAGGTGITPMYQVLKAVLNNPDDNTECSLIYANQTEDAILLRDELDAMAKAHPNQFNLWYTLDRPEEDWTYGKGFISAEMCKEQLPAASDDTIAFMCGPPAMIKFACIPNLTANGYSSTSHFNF
Kind of series: Griess colorimetric nitrite assay, single concentration. Type of series: biochemical. The conditions noted are these: 5 mM KNO3, 0.2 mM NADH, 100 mM HEPES pH 7.6, 10 μM FAD, 10 μM sodium molybdate, 10 mM MgCl2, 5 mM DTT, 24 °C. (Nitrite, measured by Griess reagent, commonly stands in for NO production.)

Substrate in series [1]: O=[N+]([O-])O
As to the kind of experiment: Griess colorimetric nitrite assay, Michaelis-Menten nonlinear regression. The conditions noted are these: 0.2 mM NADH, 100 mM HEPES pH 7.6, 10 μM FAD, 10 μM sodium molybdate, 10 mM MgCl2, 5 mM DTT, 24 °C, KNO3 0-20 mM, apparent. Type of series: biochemical, Saccharina japonica.

These results are taken from paper PMC9901164, “Cloning and characterization of nitrate reductase gene in kelp Saccharina japonica (Laminariales, Phaeophyta)” (BMC Plant Biology, 2023).

Consider `O=[N+]([O-])O` [KNO3], for which the “Griess colorimetric nitrite assay, single concentration” value at rSjNR-S was “both rSjNR-L and rSjNR-S showed NR activity in vitro”.
As to `NC(=O)C1=CN([C@@H]2O[C@H](COP(=O)(O)OP(=O)(O)OC[C@H]3O[C@@H](n4cnc5c(N)ncnc54)[C@H](O)[C@@H]3O)[C@@H](O)[C@H]2O)C=CC1` [NADH], the “Griess colorimetric nitrite assay, single concentration” value at rSjNR-S (electron donor) is given as “the activity of rSjNR-S was lower than that of rSjNR-L”.

B1: rSjNR-L (Saccharina japonica) (protein)
chain: MASGIQSCKPEKADASLVNIKGHDYYKDTFVPPAEDVTEIDPRDKGTPDDWVPRHPELVRLTGRHPFNVEPPVWRIKDHGFISPNSLHYVRNHGAVPRIVQGDSHKVRFGGAIDKPMEMSVEYIKANFKEITIPVTLVCAGNRRKEENMIKQGLGFSWGPAAVSNAMWTGVWVKDILKHIGIKSYEEGAKHVCFVGADKLPNGYYGTSIRREVCMDETADVLLAYKMNGKELSPDHGYPIRLIVPGYIGGRMIKWITDIEVTDLESDNHYHYFDNRVLPSQVDAEKAVAEGWWYKPPYIINELNINSAVVYPRHGEVLSLTSTDATYTVSGYAYGGGGIGLTRVEVSFDDGKTWELTEMCTPEKPRHMGRYWCWVFWEFKVDVLRMMKCEEIVCRAWQGQNTQPQNITWNLLGMMNNCWFRCKVHPTRDDRGALALTFEHPTMPGGQPGGWMVKGDSAVVAAAPVAKAASNGRKINLQEVQKHDNEDDCWIAVDGKVYDVTDFLDDHPGGGESITISAGQDSSDEFNALHSDKARAMLLDYYIGELDSSVEKPPKVIQEEVEVALNTRQKLAVPLIEKEVLSSDSRRFRFGLPTKDHKLGLPIGKHFFVSGRWNGEFVMRPYTPVTGDEVTGFVDLVIKVYTPNDRFPNGGKMSQLLDSLDIGDTIDIKGPVGEIAYLEPGQFLIKGKPRNASKLAMLAGGTGITPMYQVLKAVLNNPDDNTECSLIYANQTEDAILLRDELDAMAKAHPNQFNLWYTLDRPEEDWTYGKGFISAEMCKEQLPAASDDTIAFMCGPPAMIKFACIPNLTANGYSSTSHFNF
notes: E. coli BL21(DE3) pCold-SUMO-10His, Ni-NTA, SUMO tag cut off
As to B1, in series [1], the Km is given as 0.42 (± 0.059) mM.
